Tested on: DIO mice
Assay: Weight loss recovery of mPD5 relative to liraglutide
Type: in vivo
Settings: 0.09 mg kg−1 s.c. once daily for 9 days

## liraglutide
  Weight regain upon treatment cessation: promptly initiated weight regain upon treatment cessation

— PMC10906926 (Science Advances, 2024)
